Broadly, the MIC is the smallest concentration in the dilution series that meets the test's criterion for growth inhibition.

SMILES strings stand for the structures. Values after ≈ are worked out from the molar mass of the structure shown. Read-outs that look alike come from different tables or passages of the source. Where a SMILES comes first, the peptide text is derived from it. Bridges are numbered along the chain shown (N, C = ends). [ ]: non-standard residue; d: D form. dOrn = NCCC[C@@H](N)C(=O)O

One series has as its system Red blood cells (RBCs). In words: Haemolysis assay. Format: cell-based. Conditions: human RBCs 1:50 in PBS pH 7.4, 37 °C, 1 h, absorbance 540 nm. How it is done:
Human blood was obtained from BioIVT (USA). Red blood cells (RBCs) were separated from blood by centrifugation at 500g for 5 min. Plasma was removed and the RBCs were washed twice with 150 mM NaCl, using a volume equivalent to the removed plasma. After washing, phosphate-buffered saline (PBS) with a pH of 7.4, in a volume equal to the removed plasma, was added to create the RBC suspension. Using a Labcyte Echo acoustic dispenser (Beckman Coulter), 1 µl of the compound was added to the wells of a 96-well V-bottom plate. The final concentration of DMSO was kept at 1% (v/v), with a DMSO-only negative control included in each replicate. For the positive control, 10 µl of Triton X-100 was added, starting at a concentration of 20% and serially diluted twofold to 0.02%. RBCs were diluted 1:50 in PBS (pH 7.4), and 99 µl of this diluted solution was added to each well. The plates were incubated at 37 °C for 1 h, then centrifuged at 500g for 5 min to pellet the intact RBCs. Sixty-five microlitres of the supernatant was transferred to a clear, flat-bottom 96-well plate, and the absorbance was measured at 540 nm.

Series [1] concerns Clostridium perfringens GC1584. Conditions: gut isolate; BHI + L-cysteine, haemin, vitamin K, anaerobic, 37 °C.

As to `C[C@@H](O)[C@@H]1NC(=O)[C@@H](CCCNC(=N)N)NC(=O)[C@@H](CCCNC(=N)N)NC(=O)[C@@H](CC(N)=O)NC(=O)[C@@H](NC(=O)[C@@H](Cc2ccccc2)NC(=O)[C@@H](CCCN)NC(=O)[C@H](N)CCCNC(=N)N)[C@@H](C)OC(=O)[C@H](Cc2c[nH]cn2)NC1=O` [MKM-A, manikomycin] (H-[dR][dOrn][dF]T[dN][dR][dR]TH; ester 4-C), the “Haemolysis (256 μg/ml)” value in the series with Red blood cells (RBCs) is listed as less than 1%. Further, the MIC against K. pneumoniae C1459 (C1459) was 8 µg/mL (≈ 6.76 µM); in the series on K. pneumoniae C1459 (broth microdilution, Ca+ MHB Medium, MDR clinical isolate) it was 32 µg/mL (≈ 27 µM); in series [1], more than 256 µg/mL.
